# Experimental data taken from PubChem BioAssay (NCI).
#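 Growth conditions: 96-well plates. Treatment: test compound, 48 hours, 5 concentrations. Analysis: linear interpolation between bracketing concentrations; unreached endpoints set to highest concentration. TGI is the concentration that stops growth completely.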
# What was measured:
# Test in all cases: NCI anticancer screen, dose series, 48 h
# IGROV1 ovarian = system: IGROV1 ovarian
# RXF 393 renal = system: RXF 393 renal
# SK-OV-3 ovarian = system: SK-OV-3 ovarian
# TK-10 renal = system: TK-10 renal
# OVCAR-5 ovarian = system: OVCAR-5 ovarian
# OVCAR-4 ovarian = system: OVCAR-4 ovarian
# UO-31 renal = system: UO-31 renal
# HCT-116 colon = system: HCT-116 colon
# SK-MEL-2 melanoma = system: SK-MEL-2 melanoma
# NCI-H522 lung = system: NCI-H522 lung
# SK-MEL-5 melanoma = system: SK-MEL-5 melanoma
# SNB-75 CNS = system: SNB-75 CNS
# A498 renal = system: A498 renal
# HCC-2998 colon = system: HCC-2998 colon
# UACC-62 melanoma = system: UACC-62 melanoma
# LOX IMVI melanoma = system: LOX IMVI melanoma
# NCI-H460 lung = system: NCI-H460 lung
# NCI-H23 lung = system: NCI-H23 lung
# SF-268 CNS = system: SF-268 CNS
# LXFL 529 NSCLC = system: LXFL 529 NSCLC
# K-562 leukemia = system: K-562 leukemia
# ACHN renal = system: ACHN renal
# CCRF-CEM leukemia = system: CCRF-CEM leukemia
# CAKI-1 renal = system: CAKI-1 renal
# HCT-15 colon = system: HCT-15 colon
# DLD-1 colon = system: DLD-1 colon
# SNB-19 CNS = system: SNB-19 CNS
# DMS 114 small cell lung = system: DMS 114 small cell lung
# MOLT-4 leukemia = system: MOLT-4 leukemia
# NCI-H226 lung = system: NCI-H226 lung
# SW-620 colon = system: SW-620 colon
# U251 CNS = system: U251 CNS
# HL-60(TB) leukemia = system: HL-60(TB) leukemia
# SN12C renal = system: SN12C renal
# SF-539 CNS = system: SF-539 CNS
# OVCAR-8 ovarian = system: OVCAR-8 ovarian
# COLO 205 colon = system: COLO 205 colon
# MALME-3M melanoma = system: MALME-3M melanoma
# 786-0 renal = system: 786-0 renal
# M19-MEL melanoma = system: M19-MEL melanoma
# SNB-78 CNS = system: SNB-78 CNS
# EKVX NSCLC = system: EKVX NSCLC
# M14 melanoma = system: M14 melanoma
# RPMI-8226 leukemia = system: RPMI-8226 leukemia
# SK-MEL-28 melanoma = system: SK-MEL-28 melanoma
# HOP-62 NSCLC = system: HOP-62 NSCLC
# HOP-92 NSCLC = system: HOP-92 NSCLC
# HS 578T breast = system: HS 578T breast
# MDA-MB-435 = system: MDA-MB-435
# SR leukemia = system: SR leukemia
# XF 498 CNS = system: XF 498 CNS
# HT29 colon = system: HT29 colon
# KM12 colon = system: KM12 colon
# MCF7 breast = system: MCF7 breast
# UACC-257 melanoma = system: UACC-257 melanoma
# DU-145 prostate = system: DU-145 prostate
# MDA-N = system: MDA-N
# BT-549 breast = system: BT-549 breast
# PC-3 prostate = system: PC-3 prostate
# OVCAR-3 ovarian = system: OVCAR-3 ovarian
# NCI/ADR-RES ovarian = system: NCI/ADR-RES ovarian
# T-47D breast = system: T-47D breast
# KM20L2 colon = system: KM20L2 colon
# DMS 273 small cell lung = system: DMS 273 small cell lung
# SF-295 CNS = system: SF-295 CNS
# A549 NSCLC = system: A549 NSCLC
# MDA-MB-231 breast = system: MDA-MB-231 breast
smiles,measurement,setting,value
CC(=O)OC1CC2C(C)(C)C(=O)C=C[C@]2(C)C2CCC3(C)C(c4ccoc4)C(=O)[C@H]4O[C@]43[C@]12C (stereo partly drawn),TGI,IGROV1 ovarian,78.9 µM
same,TGI,RXF 393 renal,47.5 µM
same,TGI,SK-OV-3 ovarian,> 100 µM
same,TGI,TK-10 renal,> 100 µM
same,TGI,OVCAR-5 ovarian,42.5 µM
same,TGI,OVCAR-4 ovarian,> 100 µM
same,TGI,UO-31 renal,32.7 µM
same,TGI,HCT-116 colon,28.7 µM
same,TGI,SK-MEL-2 melanoma,43.4 µM
same,TGI,NCI-H522 lung,36.9 µM
same,TGI,SK-MEL-5 melanoma,32.9 µM
same,TGI,SNB-75 CNS,> 100 µM
same,TGI,A498 renal,36.8 µM
same,TGI,HCC-2998 colon,32.2 µM
same,TGI,UACC-62 melanoma,64.2 µM
same,TGI,LOX IMVI melanoma,42.6 µM
same,TGI,NCI-H460 lung,36.8 µM
same,TGI,NCI-H23 lung,50.4 µM
same,TGI,SF-268 CNS,> 100 µM
same,TGI,LXFL 529 NSCLC,> 100 µM
same,TGI,K-562 leukemia,59.5 µM
same,TGI,ACHN renal,45.1 µM
same,TGI,CCRF-CEM leukemia,62.3 µM
same,TGI,CAKI-1 renal,75.1 µM
same,TGI,HCT-15 colon,37.7 µM
same,TGI,DLD-1 colon,28.3 µM
same,TGI,SNB-19 CNS,67.5 µM
same,TGI,DMS 114 small cell lung,> 100 µM
same,TGI,MOLT-4 leukemia,46.6 µM
same,TGI,NCI-H226 lung,50.4 µM
same,TGI,SW-620 colon,59.2 µM
same,TGI,U251 CNS,32.9 µM
same,TGI,HL-60(TB) leukemia,42.3 µM
same,TGI,SN12C renal,66.1 µM
same,TGI,SF-539 CNS,39.9 µM
same,TGI,OVCAR-8 ovarian,49.9 µM
same,TGI,COLO 205 colon,> 100 µM
same,TGI,MALME-3M melanoma,32.1 µM
same,TGI,786-0 renal,35.5 µM
same,TGI,M19-MEL melanoma,55.2 µM
same,TGI,SNB-78 CNS,> 100 µM
same,TGI,EKVX NSCLC,89.2 µM
same,TGI,M14 melanoma,82.4 µM
same,TGI,RPMI-8226 leukemia,47.3 µM
same,TGI,SK-MEL-28 melanoma,32.7 µM
same,TGI,HOP-62 NSCLC,42.7 µM
same,TGI,HOP-92 NSCLC,34.4 µM
O=C1CSC(/C(=C\c2ccc(Cl)cc2)c2nc3ccccc3[nH]2)=N1,TGI,IGROV1 ovarian,22.4 µM
same,TGI,HS 578T breast,53.2 µM
same,TGI,RXF 393 renal,2.14 µM
same,TGI,SK-OV-3 ovarian,24.1 µM
same,TGI,MDA-MB-435,32.6 µM
same,TGI,TK-10 renal,24.8 µM
same,TGI,OVCAR-5 ovarian,33.5 µM
same,TGI,SR leukemia,94.4 µM
same,TGI,XF 498 CNS,3.01 µM
same,TGI,OVCAR-4 ovarian,31.8 µM
same,TGI,UO-31 renal,7.64 µM
same,TGI,HCT-116 colon,30.4 µM
same,TGI,SK-MEL-2 melanoma,34.5 µM
same,TGI,NCI-H522 lung,12.6 µM
same,TGI,SK-MEL-5 melanoma,24.6 µM
same,TGI,HT29 colon,46.5 µM
same,TGI,SNB-75 CNS,28.8 µM
same,TGI,A498 renal,16 µM
same,TGI,HCC-2998 colon,17.7 µM
same,TGI,UACC-62 melanoma,33.5 µM
same,TGI,LOX IMVI melanoma,32.4 µM
same,TGI,NCI-H460 lung,32.2 µM
same,TGI,NCI-H23 lung,30.7 µM
same,TGI,SF-268 CNS,23 µM
same,TGI,LXFL 529 NSCLC,35.2 µM
same,TGI,KM12 colon,28.5 µM
same,TGI,K-562 leukemia,> 100 µM
same,TGI,ACHN renal,19 µM
same,TGI,MCF7 breast,28.7 µM
same,TGI,CCRF-CEM leukemia,> 75.7 µM
same,TGI,CAKI-1 renal,21.5 µM
same,TGI,HCT-15 colon,52.4 µM
same,TGI,UACC-257 melanoma,34.7 µM
same,TGI,DLD-1 colon,32.5 µM
same,TGI,SNB-19 CNS,33.9 µM
same,TGI,MOLT-4 leukemia,> 100 µM
same,TGI,DU-145 prostate,26.2 µM
same,TGI,MDA-N,37.6 µM
same,TGI,NCI-H226 lung,18.2 µM
same,TGI,BT-549 breast,36.6 µM
same,TGI,SW-620 colon,35.6 µM
same,TGI,PC-3 prostate,36.5 µM
same,TGI,OVCAR-3 ovarian,20.9 µM
same,TGI,U251 CNS,25.6 µM
same,TGI,HL-60(TB) leukemia,> 68.8 µM
same,TGI,SN12C renal,34.2 µM
same,TGI,NCI/ADR-RES ovarian,36.9 µM
same,TGI,SF-539 CNS,2.06 µM
same,TGI,T-47D breast,31.7 µM
same,TGI,OVCAR-8 ovarian,32 µM
same,TGI,COLO 205 colon,36.4 µM
same,TGI,KM20L2 colon,52.1 µM
same,TGI,DMS 273 small cell lung,37.6 µM
same,TGI,MALME-3M melanoma,31.6 µM
same,TGI,SF-295 CNS,22.8 µM
same,TGI,786-0 renal,26.4 µM
same,TGI,M19-MEL melanoma,28.8 µM
same,TGI,SNB-78 CNS,> 100 µM
same,TGI,EKVX NSCLC,32.2 µM
same,TGI,M14 melanoma,40.3 µM
same,TGI,A549 NSCLC,16.4 µM
same,TGI,RPMI-8226 leukemia,> 100 µM
same,TGI,MDA-MB-231 breast,28.3 µM
same,TGI,SK-MEL-28 melanoma,32.6 µM
same,TGI,HOP-62 NSCLC,5.82 µM
same,TGI,HOP-92 NSCLC,25.1 µM
